Values quoted from earlier work in PMC11519904, “Comprehensive Cell Biological Investigation of Cytochalasin B Derivatives with Distinct Activities on the Actin Network” (Journal of Natural Products, 2024).

Tested on: glucose carrier in human erythrocytes
Details: cited from earlier work

C=C1[C@@H](C)[C@H]2[C@H](Cc3ccccc3)NC(=O)[C@]23OC(=O)/C=C/[C@H](O)CCC[C@@H](C)C/C=C/[C@H]3[C@@H]1OC(C)=O [Compound 3, 7-O-acetyl cytochalasin B]
binding to site I of the glucose carrier (human erythrocyte membranes ref 30): able to bind site I | inhibition of glucose transport (human erythrocytes ref 29, 30): inhibits glucose transport
